Source: patent publication US20060240494A1, “Biocidal molecules, macromolecular targets and methods of production and use” (priority 2000, published 2006)
Several values for one entry are separate records, joined by “and”; a condition that tells them apart may be missing. Equal values may be shown once. Read-outs that look alike come from different tables or passages of the source. Non-standard residues stand in square brackets, D forms with d. Residues, ends and D or L forms follow the SMILES beside them. No end group written: not given here. Ac6c = NC1(C(=O)O)CCCCC1; Dap = NC[C@H](N)C(=O)O

Key:
[1] = tested on: M. luteus; assay: Growth inhibition assay, M. luteus; assay type: cell-based, Micrococcus luteus; settings: Luria-Bertani rich nutrient medium
Method: Growth inhibition assays are performed using the candidate antibacterial compounds and the Gram positive microorganisms Micrococcus luteus and Bacillus megaterium, and the Gram negative microorganisms, Escherichia coli D22, Agrobacterium tumefaciens, and Salmonella typhimurium. Antibacterial assays are performed in sterilized 96-well plates (Nunc F96 microtiter plates) with a final volume of 100 μl as described in Bulet (1996), cited above. Briefly, 90 μl of a suspension of a midlogarithmic phase bacterial culture at an initial 600 nm UV absorbance of 0.001 in Luria-Bertani rich nutrient medium is added to 10 μl of serially diluted candidate compounds in sterilized water. The final compound concentrations range between 0.15 and 80 μM, and more preferably between 0.3 μM and 40 μM. The plates are incubated at 30° C. for 24 hours with gentle shaking, and the growth inhibition is measured by recording the increase of the UV absorbance at 600 nm on an SLT Labinstruments 400 ATC microplate reader. The experiments are conducted over a 7-month period.
The inhibitory concentrations (IC50) of each candidate compound is determined against each above-indicated microorganism.
As one example, this in vitro antibacterial assay was performed on a broad spectrum divalent pyrrhocoricin analog, Chex-Pyrrhocoricin-2-19-Dap-[Chex-Pyrrhocoricin-2-19-Dap(Ac)], and the results illustrated in Table 4.

[2] = molecular target: E. coli DnaK fragment aa588-615 (Escherichia coli, UniProt P0A6Y8); assay: Fluorescence polarization with synthetic DnaK fragment aa588-615; assay type: binding
[3] = within a four-hour period; Hoffmann et al, 1999; cited from earlier work
[4] = within a four-hour period; Hoffmann et al, 1999; cited from earlier work; remark: listed apart in the source
[5] = tested on: alkaline phosphatase activities of live E. coli TG-1 cells; assay type: cell-based; settings: peptide 32 μg/mL; live E. coli TG-1; four independent assays
[6] = tested on: β-galactosidase activities of live E. coli TG-1 cells; assay type: cell-based; settings: for Inhibition of enzymatic activity after 1 hour (%) β-Galactosidase: peptide 32 μg/mL, live E. coli TG-1, three independent assays
[7] = molecular target: E. coli DnaK aa583-615 (Escherichia coli, UniProt P0A6Y8); assay: Circular dichroism of peptide - E. coli DnaK fragment mixtures; assay type: binding; settings: DnaK spectrum subtracted from mixture
Text: CD spectra are taken in water, and water-trifluoroethanol (TFE) mixtures to determine whether the characteristic unordered or turn→α-helix conformational transition, frequently observed for peptide fragments of helical domains of proteins, occurs at identical TFE concentrations. In pure water, the CD spectra of the E. coli and S. aureus DnaK fragments could be assigned as a type C spectrum, and reflect the dominance of type I (III) β-turns, or a mixture of type I and type II turns. […] This is an unmistakable indication of the appearance of helical structures, most likely 310-helices. The two DnaK fragments behaved identically, at least in spectral terms. While the spectral features of well-developed α-helices could already be seen at a TFE concentration as low as 10%, the intensity was increased with increasing TFE content. In 100% TFE a fully α-helical spectrum was recorded.
To estimate the bound conformation of the antibacterial peptides, the spectra of drosocin or pyrrhocoricin alone, as well as those of the E. coli and S. aureus DnaK fragments were recorded, followed by the recording of the CD spectra of antibacterial peptide-DnaK fragment mixtures. […]

[8] = molecular target: T1, recombinant E. coli DnaK (Escherichia coli, UniProt P0A6Y8); assay: EnzChek ATPase assay, recombinant DnaK; assay type: biochemical; settings: 50 molar equivalents of peptide; 22° C., 30 min; UV absorbance at 360 nm
T1 construct: purchased StressGen, Victoria, Canada
Text: To determine whether the proline-rich antibacterial peptides that were predicted to bind to DnaK between the peptide binding pocket and the C-terminus would interfere with ATPase activity, a recently developed continuous spectrophotometric (colorimetric) ATPase activity assay [Rieger, C. E. et al, (1997) Anal. Biochem. 246: 86-95] was used. This assay uses using 2-amino-6-mercapto-7-methylpurine ribonucleoside (MESG)/purine nucleoside phosphorylase reaction to detect the released inorganic phosphate (EnzChek ATPase determination kit from Molecular Probes, Eugene, USA). Assays were performed in 500 μL tubes in duplicates in a total volume of 125 μL containing 20 mM tris(hydroxymethyl)amino-ethane (Tris)-HCl, pH 7.6, 1 mM MgCl2, […] (except in assaying the baseline), 5 μg of DnaK (recombinant DnaK protein from StressGen,Victoria, Canada) and 50 molar equivalents of the particular peptide, MESG and the purine nucleoside phosphorylase recommended by the manufacturer. After incubation at 22° C. for 30 min, 100 μL of the reaction mixture was transferred to a quartz cuvette and the ultraviolet (UV) absorbance at 360 nm was measured. The assay was run in a miniaturized form to increase the concentration and therefore the enzymatic activity of DnaK. In a larger, standard format the ATPase activity of DnaK without peptide addition was 6 pmol/μg/min, in line with the published data of 4 pmol/μg/min [Liberek, K. et al, (1991) Proc. Natl. Acad. Sci. USA 88: 2874-2878].

[9] = tested on: E. coli D22; settings: Otvos et al, 2000, Protein Science; cited from earlier work
[10] = molecular target: GroEL (Escherichia coli, UniProt P0A6F5); assay type: binding, E. coli; parameters: purchased; host or cells: E. coli; settings: then 1 nM fluorescein-K-pyrrhocoricin, no peptide 70 ± 10
[11] = tested on: bacteria; assay: Bacterial killing by labeled and unlabeled pyrrhocoricin; assay type: cell-based
[12] = molecular target: DnaK (Escherichia coli, UniProt P0A6Y8); assay type: binding, E. coli; parameters: purchased; host or cells: E. coli
[13] = tested on: E. coli infection; settings: Otvos et al, 2000, cited from earlier work
[14] = tested on: E. coli strain (ATCC 25922); assay: Validated antibacterial assay conditions, E. coli ATCC 25922; assay type: cell-based
[15] = molecular target: S. aureus aa554-585 DnaK fragment (Staphylococcus aureus, UniProt P45554); assay: Circular dichroism of peptide - S. aureus DnaK fragment mixtures; assay type: binding; settings: wavelength of band maxima
Method: To estimate the bound conformation of the antibacterial peptides, the spectra of drosocin or pyrrhocoricin alone, as well as those of the E. coli and S. aureus DnaK fragments were recorded, followed by the recording of the CD spectra of antibacterial peptide-DnaK fragment mixtures. Finally the original spectra of the DnaK peptides were subtracted from the spectra of the mixtures, and the residual spectra, representing the conformation of the bound peptides were compared to the spectra of the antibacterial peptides alone. This exercise is justifiable only if the conformation of the protein fragments remain unchanged upon interaction with drosocin or pyrrhocoricin. […] It is expected that the binding will not modify the helix structure of the rigid DnaK fragments, but can influence the conformation of the flexible antibacterial peptides.
The results of this conformational analysis for pyrrhocoricin—E. coli DnaK interaction are as follows. The CD spectrum of the mixture of the two peptides resembled that of the DnaK fragment alone, except that the intensities were lower, due to the lower intensity of the CD spectrum of pyrrhocoricin.
To ascertain that this conformational change upon binding was not a spectroscopical artifact, the procedure was repeated with pyrrhocoricin and the DnaK peptide derived from the non-responsive strain S. aureus.

[16] = molecular target: E. coli DnaK fragment aa583-615 (D-E helix hinge) (Escherichia coli, UniProt P0A6Y8); assay: Fluorescence polarization with synthetic DnaK fragment aa583-615; assay type: binding
Method: The binding of the synthetic DnaK fragments to their fluorescein-labeled pyrrhocoricin counterparts was also assessed in solution, by fluorescence polarization [Lundblad, J. R. et al, (1996) Mol. Endocrinol. 10: 607-612]. For these experiments, the unlabeled peptides were serially diluted in PBS (pH 7.4) or 0.1 M Tris-HCl (pH 8.0) containing 0.1 M ethylene-diamine-tetraacetic acid (EDTA) in 50 μL final volume in 6×50 mm disposable glass borosilicate tubes. The fluoresceinated peptides were added to each tube in a 50 μL aliquot to a final concentration of 1 nM and tubes were incubated at 37° C. for 5 minutes. The extent of fluorescence anisotropy was measured on a Beacon 2000 fluorescence polarization instrument (PanVera, Madison, Wis.) and calculated as millipolarization values. The filters used were 485 nm excitation and 535 nm emission with 3 nm band width. Non-linear curve fitting was done by using a dose-response logistical transition [y=a0+a1/(1+x/a2)^a^3] and the Levenberg-Marquardt Algorithm within the SlideWrite software package. The provided Kd value (a2 coefficient) was calculated by the program.
To quantitatively characterize the pyrrhocoricin—D-E helix interaction, the complete binding curves were measured for E. coli DnaK fragments aa583-615 and aa588-615, both of SEQ ID NO: 10.

[17] = tested on: Ras; assay: Competition fluorescence polarization against labeled pyrrhocoricin, Ras; assay type: binding; settings: 4 μM Ras reading 52±7
[18] = tested on: S. aureus; settings: Otvos et al, 2000, Biochemistry; cited from earlier work
[19] = molecular target: Hsp70 (Homo sapiens, UniProt P0DMV8); assay: EnzChek ATPase assay, recombinant Hsp70; assay type: biochemical; settings: human equivalent of DnaK
Chain of Hsp70 (P0DMV8 whole entry): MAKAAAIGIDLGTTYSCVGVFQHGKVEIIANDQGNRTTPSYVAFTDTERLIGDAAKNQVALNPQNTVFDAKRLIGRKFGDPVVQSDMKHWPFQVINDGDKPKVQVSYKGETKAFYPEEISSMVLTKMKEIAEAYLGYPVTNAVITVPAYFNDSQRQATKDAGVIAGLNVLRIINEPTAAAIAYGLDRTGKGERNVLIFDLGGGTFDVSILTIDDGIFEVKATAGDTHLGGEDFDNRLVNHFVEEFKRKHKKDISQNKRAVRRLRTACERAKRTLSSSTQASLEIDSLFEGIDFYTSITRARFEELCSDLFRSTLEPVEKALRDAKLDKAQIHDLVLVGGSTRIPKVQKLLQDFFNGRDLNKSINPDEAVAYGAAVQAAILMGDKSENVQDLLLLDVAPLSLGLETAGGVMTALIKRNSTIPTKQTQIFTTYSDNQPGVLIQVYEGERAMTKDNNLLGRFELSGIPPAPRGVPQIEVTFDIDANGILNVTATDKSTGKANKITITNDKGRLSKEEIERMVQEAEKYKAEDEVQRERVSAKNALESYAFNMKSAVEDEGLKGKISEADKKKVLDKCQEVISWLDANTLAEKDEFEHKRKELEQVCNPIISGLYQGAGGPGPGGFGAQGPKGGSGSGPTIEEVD

Chain of DnaK (P0A6Y8 whole entry): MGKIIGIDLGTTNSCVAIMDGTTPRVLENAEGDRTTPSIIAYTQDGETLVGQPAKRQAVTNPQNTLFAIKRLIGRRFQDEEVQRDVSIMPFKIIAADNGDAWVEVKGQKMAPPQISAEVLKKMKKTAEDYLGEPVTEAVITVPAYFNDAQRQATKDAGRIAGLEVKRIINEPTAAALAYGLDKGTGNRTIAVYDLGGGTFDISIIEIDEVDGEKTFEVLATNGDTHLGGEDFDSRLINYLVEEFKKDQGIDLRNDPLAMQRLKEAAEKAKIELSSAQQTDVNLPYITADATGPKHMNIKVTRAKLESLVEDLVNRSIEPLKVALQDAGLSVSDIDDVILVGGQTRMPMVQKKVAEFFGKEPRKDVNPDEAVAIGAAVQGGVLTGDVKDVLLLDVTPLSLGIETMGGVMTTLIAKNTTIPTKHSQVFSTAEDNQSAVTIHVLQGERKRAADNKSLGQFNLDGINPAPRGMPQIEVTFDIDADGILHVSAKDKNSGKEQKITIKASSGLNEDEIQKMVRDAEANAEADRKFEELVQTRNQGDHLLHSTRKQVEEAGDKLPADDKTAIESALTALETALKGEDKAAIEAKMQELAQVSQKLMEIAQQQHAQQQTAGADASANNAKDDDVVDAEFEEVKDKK
T1 sequence (P0A6Y8 whole entry): as above
Chain of GroEL (P0A6F5 2-548 limits assumed): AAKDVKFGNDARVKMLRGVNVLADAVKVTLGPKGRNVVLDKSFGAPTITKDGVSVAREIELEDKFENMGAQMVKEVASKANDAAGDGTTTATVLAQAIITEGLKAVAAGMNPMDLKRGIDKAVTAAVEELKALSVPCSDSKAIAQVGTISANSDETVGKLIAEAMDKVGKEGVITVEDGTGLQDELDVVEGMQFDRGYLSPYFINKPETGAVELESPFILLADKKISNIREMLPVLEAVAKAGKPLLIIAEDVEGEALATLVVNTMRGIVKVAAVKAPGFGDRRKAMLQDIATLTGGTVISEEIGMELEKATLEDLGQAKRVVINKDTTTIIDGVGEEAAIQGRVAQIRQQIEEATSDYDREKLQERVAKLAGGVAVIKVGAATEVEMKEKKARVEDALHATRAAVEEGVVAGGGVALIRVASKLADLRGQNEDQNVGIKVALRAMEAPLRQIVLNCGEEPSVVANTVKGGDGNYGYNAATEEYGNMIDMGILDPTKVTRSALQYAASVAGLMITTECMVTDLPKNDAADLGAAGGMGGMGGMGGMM
Chain of E. coli DnaK aa583-615 (P0A6Y8 584-616 limits assumed): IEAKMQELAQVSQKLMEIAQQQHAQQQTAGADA
Chain of E. coli DnaK fragment aa588-615 (P0A6Y8 589-616 limits assumed): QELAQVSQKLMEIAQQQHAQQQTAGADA
Chain of E. coli DnaK fragment aa583-615 (D-E helix hinge) (P0A6Y8 584-616): as the sequence (P0A6Y8 584-616 limits assumed) above
Chain of S. aureus aa554-585 DnaK fragment (P45554 554-585 limits assumed): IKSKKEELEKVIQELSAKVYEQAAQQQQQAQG

CC[C@H](C)[C@H](NC(=O)[C@@H]1CCCN1C(=O)[C@H](CCCNC(=N)N)NC(=O)[C@@H]1CCCN1C(=O)[C@@H]1CCCN1C(=O)[C@@H](NC(=O)[C@@H]1CCCN1C(=O)[C@H](CCCNC(=N)N)NC(=O)[C@@H]1CCCN1C(=O)[C@H](CC(C)C)NC(=O)[C@H](Cc1ccc(O)cc1)NC(=O)[C@H](CO)NC(=O)CNC(=O)[C@H](CCCCN)NC(=O)[C@H](CC(=O)O)NC(=O)C1(NC(=O)[C@H](CN)NC(=O)[C@H](CCCNC(=N)N)NC(=O)[C@H](CC(N)=O)NC(=O)[C@H](Cc2ccc(O)cc2)NC(=O)[C@@H](NC(=O)[C@@H]2CCCN2C(=O)[C@H](CCCNC(=N)N)NC(=O)[C@@H]2CCCN2C(=O)[C@@H]2CCCN2C(=O)[C@@H](NC(=O)[C@@H]2CCCN2C(=O)[C@H](CCCNC(=N)N)NC(=O)[C@@H]2CCCN2C(=O)[C@H](CC(C)C)NC(=O)[C@H](Cc2ccc(O)cc2)NC(=O)[C@H](CO)NC(=O)CNC(=O)[C@H](CCCCN)NC(=O)[C@H](CC(=O)O)NC(=O)C2(N)CCCCC2)[C@@H](C)O)[C@@H](C)CC)CCCCC1)[C@@H](C)O)C(=O)N[C@@H](Cc1ccc(O)cc1)C(=O)N[C@@H](CC(N)=O)C(=O)N[C@@H](CCCNC(=N)N)C(=O)N[C@@H](CNC(C)=O)C(=O)O [Chex-Pyrrhocoricin-2-19-Dap-[Chex-Pyrrhocoricin-2-19-Dap(Ac)]] (H-[Ac6c]DKGSYLPRPTPPRPIYNR[Dap][Ac6c]DKGSYLPRPTPPRPIYNR[Dap](Ac)-OH; C-terminus assumed) showed an IC50 [1] of 40 to 80 µM.

For GKPRPYSPRPTSHPRPIRV [Drosocin], the “binding to aa588-615 fragment” value [2] is listed as “considerably weaker than pyrrhocoricin”, the “degradation in diluted human serum” value [3] is listed as “completely degraded” and the “degradation in diluted mouse serum” value [4] is listed as “completely degraded”. For the same molecule, the “Inhibition of enzymatic activity after 1 hour (%) Alkaline Phosphatase” value [5] was 35 ± 27%, the “effect on β-galactosidase activity after 6 hours” value ([6]; 32 μg/mL, FIG. 2A) was “detrimental” and the “Inhibition of enzymatic activity after 1 hour (%) β-Galactosidase” value [6] was 98 ± 68%. For the same molecule, the “CD spectral change of the peptide upon mixing with DnaK fragment” value (from here on “CD spectral change”) [7] was “did not appear to modify the conformation” and the “effect on ATPase activity of recombinant DnaK” value [8] was “without affecting”.

In the case of VDKGSYLPRPTPPRPIYNRN [pyrrhocoricin], the “killing of E. coli D22” value [9] is given as “nanomolar concentrations”, the “Millipolarization after preincubation with” value (shortened to “Millipolarization”) ([10]; 4 μM GroEL preincubated with 4 μM unlabeled peptide, corrected with Ras readings) is given as 62 and the “Millipolarization” value ([10]; 4 μM GroEL preincubated with 8 μM unlabeled peptide) is given as 62. For the same molecule, the “concentration range killing bacteria” value [11] was “mid-nanomolar concentration range”, the “Millipolarization” value [12] was 110 and 84 and the toxicity in vivo ([13]; higher dose for pyrrhocoricin, compromised animals) was “toxic to compromised animals”. The “protection of mice against E. coli infection” value ([13]; low doses for pyrrhocoricin) was “protected mice”, the “killing of E. coli ATCC 25922” value [14] was “failed to kill” and the “CD spectral change” value [15] was “remained unchanged”. For the same molecule, the Kd [16] was 50.8 µM, the “Inhibition of enzymatic activity after 1 hour (%) Alkaline Phosphatase” value [5] was 32 ± 16% and the “decrease of the Ras readings” value ([17]; preincubation with 4 μM peptide) was 16 millipolarization units. For the same molecule, the “decrease of the Ras readings” value ([17]; preincubation with 8 μM peptide) was 27 millipolarization units, the “activity against S. aureus in vitro” value [18] was “inactive” and the “Inhibition of enzymatic activity after 1 hour (%) β-Galactosidase” value [6] was 153 ± 57%. For the same molecule, the “effect on ATPase activity of recombinant Hsp70” value [19] was “did not influence”, the “CD spectral change” value [7] was “redshift of both pyrrhocoricin bands” and the “effect on ATPase activity of recombinant DnaK” value [8] was “less than half of the original value”.
